# Patent US9976141B2, “Compositions and methods for inhibiting gene expression of Hif2alpha” (Arrowhead Madison Inc., priority 2015, dated 2018)
# Strand notation (5' to 3'): a small letter for the sugar, then the base; units joined by * are phosphorothioate-linked, units joined directly phosphodiester-linked; [ ] holds rarer units or linkages, { } end groups; capitals alone tell only the bases. d = 2'-deoxy (DNA); m = 2'-O-methyl; f = 2'-fluoro
# Test system: human EPAS1 (Hif2α) cDNA in psiCHECK2 (Renilla luciferase/EPAS1 fusion mRNA) in Hep3B cells
# Test: Efficacy screen of Hif2α RNAi triggers in vitro, dual-luciferase reporter assay (1 nM and 0.1 nM)
# Type: cell-based
# Conditions: Hep3B cells co-transfected with EPAS1-psiCHECK2, Renilla luciferase normalized to firefly luciferase
# Procedure, shortened: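 Knockdown read by dual-luciferase assay: Renilla signal from the Renilla/EPAS1 fusion transcript divided by firefly luciferase expressed from the same plasmid. Triggers (modified canonical siRNAs, 1 nM or 0.1 nM) were co-transfected with 25 ng reporter plasmid per well into human hepatocellular carcinoma Hep3B cells.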
Substance,Relative Rluc-Hif2α (0.1 nM RNAi trigger),Relative Rluc-Hif2α (1 nM RNAi trigger)
2388 (sense fCmCfAmAfCmUfAmUfUmUfAmGfUmAfAmGfCmCfAdT; antisense dTfGmGfCmUfUmAfCmUfAmAfAmUfAmGfUmUfGmGdT*dT; siRNA) [compound 2388],0.901 ± 0.318,0.436 ± 0.021
2239 (sense fGmGfCmGfUmCfUmGfAmAfCmGfUmCfUmCfAmAfAdT; antisense dTfUmUfGmAfGmAfCmGfUmUfCmAfGmAfCmGfCmCdT*dT; siRNA) [compound 2239],0.225 ± 0.022,0.157 ± 0.017
2296 (sense fCmAfUmCfUmUfUmGfGmAfUmAfAmCfGmAfCmCfAdT; antisense dTfGmGfUmCfGmUfUmAfUmCfCmAfAmAfGmAfUmGdT*dT; siRNA) [compound 2296],0.411 ± 0.079,0.213 ± 0.028
2233 (sense fUmCfCmGfAmCfUmCfCmCfAmGfCmAfUmUfCmGfAdT; antisense dTfCmGfAmAfUmGfCmUfGmGfGmAfGmUfCmGfGmAdT*dT; siRNA) [compound 2233],0.913 ± 0.019,0.862 ± 0.125
2278 (sense fCmCfAmGfUmAfCmCfGmGfAmUfGmCfUmCfGmCfAdT; antisense dTfGmCfGmAfGmCfAmUfCmCfGmGfUmAfCmUfGmGdT*dT; siRNA) [compound 2278],0.947 ± 0.044,0.564 ± 0.070
2305 (sense fGmCfCmGfGmAfAmGfCmAfAmAfGmCfAmUfCmCfAdT; antisense dTfGmGfAmUfGmCfUmUfUmGfCmUfUmCfCmGfGmCdT*dT; siRNA) [compound 2305],0.961 ± 0.120,0.992 ± 0.217
2255 (sense fGmAfCmAfUmGfUmCfCmAfCmAfGmAfGmCfGmGfAdT; antisense dTfCmCfGmCfUmCfUmGfUmGfGmAfCmAfUmGfUmCdT*dT; siRNA) [compound 2255],0.653 ± 0.130,0.721 ± 0.055
2395 (sense fUmAfUmUfAmAfCmCfCmUfAmCfCmUfGmUfCmAfAdT; antisense dTfUmGfAmCfAmGfGmUfAmGfGmGfUmUfAmAfUmAdT*dT; siRNA) [compound 2395],0.494 ± 0.104,0.218 ± 0.029
2313 (sense fAmGfUmGfGmGfCmCfGmUfCmGfGmGfGmAfUmCfAdT; antisense dTfGmAfUmCfCmCfCmGfAmCfGmGfCmCfCmAfCmUdT*dT; siRNA) [compound 2313],0.853 ± 0.133,0.886 ± 0.243
2316 (sense fGmCfUmCfGmAfGmGfCmCfCmAfGmAfCmGfUmGfAdT; antisense dTfCmAfCmGfUmCfUmGfGmGfCmCfUmCfGmAfGmCdT*dT; siRNA) [compound 2316],0.797 ± 0.211,0.579 ± 0.055
2361 (sense fGmGfAmGfCmAfCmUfGmCfGmCfGmCfUmAfUmCfAdT; antisense dTfGmAfUmAfGmCfGmCfGmCfAmGfUmGfCmUfCmCdT*dT; siRNA) [compound 2361],0.800 ± 0.198,0.603 ± 0.133
2352 (sense fAmUfCmUfGmUfGmAfUmAfUmGfCmCfAmUfAmGfAdT; antisense dTfCmUfAmUfGmGfCmAfUmAfUmCfAmCfAmGfAmUdT*dT; siRNA) [compound 2352],1.012 ± 0.048,0.749 ± 0.049
2310 (sense fUmUfUmGfGmGfCmCfCmAfCmAfAmAfGmUfGmGfAdT; antisense dTfCmCfAmCfUmUfUmGfUmGfGmGfCmCfCmAfAmAdT*dT; siRNA) [compound 2310],0.785 ± 0.122,0.923 ± 0.101
2306 (sense fCmCfCmCfCmAfGmAfUmCfCmAfCmCfAmUfUmAfAdT; antisense dTfUmAfAmUfGmGfUmGfGmAfUmCfUmGfGmGfGmGdT*dT; siRNA) [compound 2306],0.596 ± 0.038,0.613 ± 0.031
2414 (sense fUmAfAmCfUmGfUmAfUmGfGmGfAmGfCmUfUmAfAdT; antisense dTfUmAfAmGfCmUfCmCfCmAfUmAfCmAfGmUfUmAdT*dT; siRNA) [compound 2414],0.422 ± 0.070,0.167 ± 0.038
2336 (sense fAmCfAmAfGmUfUmUfGmGfUmGfCmAfUmGfUmCfAdT; antisense dTfGmAfCmAfUmGfCmAfCmCfAmAfAmCfUmUfGmUdT*dT; siRNA) [compound 2336],0.783 ± 0.037,0.299 ± 0.034
2257 (sense fGmGfAmUfGmAfAmGfUmGfCmAfCmGfGmUfCmAfAdT; antisense dTfUmGfAmCfCmGfUmGfCmAfCmUfUmCfAmUfCmCdT*dT; siRNA) [compound 2257],0.647 ± 0.127,0.802 ± 0.044
2396 (sense fUmUfAmAfCmCfCmUfAmCfCmUfGmUfCmAfAmCfAdT; antisense dTfGmUfUmGfAmCfAmGfGmUfAmGfGmGfUmUfAmAdT*dT; siRNA) [compound 2396],1.321 ± 0.070,0.939 ± 0.299

Substance,Relative Rluc-Hif2α (0.1 nM RNAi trigger),Relative Rluc-Hif2α (1 nM RNAi trigger)
2265 (sense fAmGfAmAfCmUfGmAfUmUfGmGfUmUfAmCfCmAfAdT; antisense dTfUmGfGmUfAmAfCmCfAmAfUmCfAmGfUmUfCmUdT*dT; siRNA) [compound 2265],0.448 ± 0.042,0.186 ± 0.045
2290 (sense fAmGfUmAfAmCfUmUfCmCfUmAfUmUfCmAfCmCfAdT; antisense dTfGmGfUmGfAmAfUmAfGmGfAmAfGmUfUmAfCmUdT*dT; siRNA) [compound 2290],0.698 ± 0.155,0.353 ± 0.036
2339 (sense fGmGfGmUfCmAfAmCfUmCfCmAfAmCfGmUfAmUfAdT; antisense dTfAmUfAmCfGmUfUmGfGmAfGmUfUmGfAmCfCmCdT*dT; siRNA) [compound 2339],0.523 ± 0.134,0.189 ± 0.028
2292 (sense fCmUfGmCfUmCfCmAfCmGfCmCfCmAfAmUfAmGfAdT; antisense dTfCmUfAmUfUmGfGmGfCmGfUmGfGmAfGmCfAmGdT*dT; siRNA) [compound 2292],1.135 ± 0.048,0.832 ± 0.000
2384 (sense fGmUfAmAfGmAfGmGfGmAfCmGfAmCfAmCfCmUfAdT; antisense dTfAmGfGmUfGmUfCmGfUmCfCmCfUmCfUmUfAmCdT*dT; siRNA) [compound 2384],0.533 ± 0.067,0.439 ± 0.101
2346 (sense fAmAfCmGfUmAfUmGfUmGfGmUfUmAfUmCfUmGfAdT; antisense dTfCmAfGmAfUmAfAmCfCmAfCmAfUmAfCmGfUmUdT*dT; siRNA) [compound 2346],0.523 ± 0.133,0.273 ± 0.012
2337 (sense fAmCfUmAfAmAfAmAfGmAfUmUfCmCfUmCfGmUfAdT; antisense dTfAmCfGmAfGmGfAmAfUmCfUmUfUmUfUmAfGmUdT*dT; siRNA) [compound 2337],0.334 ± 0.066,0.131 ± 0.033
2280 (sense fUmAfCmCfGmGfAmUfGmCfUmCfGmCfAmAfAmGfAdT; antisense dTfCmUfUmUfGmCfGmAfGmCfAmUfCmCfGmGfUmAdT*dT; siRNA) [compound 2280],0.871 ± 0.147,0.911 ± 0.086
2407 (sense fAmCfGmUfAmAfCmGfAmUfUmUfCmAfUmGfAmAfAdT; antisense dTfUmUfCmAfUmGfAmAfAmUfCmGfUmUfAmCfGmUdT*dT; siRNA) [compound 2407],0.222 ± 0.027,0.124 ± 0.021
2237 (sense fGmUfGmCfUmCfGmGfCmGfUmCfUmGfAmAfCmGfAdT; antisense dTfCmGfUmUfCmAfGmAfCmGfCmCfGmAfGmCfAmCdT*dT; siRNA) [compound 2237],0.746 ± 0.029,0.978 ± 0.083
2260 (sense fCmAfCmCfAmAfCmAfGmAfGmGfCmCfGmUfAmCfAdT; antisense dTfGmUfAmCfGmGfCmCfUmCfUmGfUmUfGmGfUmGdT*dT; siRNA) [compound 2260],0.861 ± 0.031,1.030 ± 0.187
2301 (sense fAmUfCmUfUmCfUmUfUmGfAmUfGmCfCmGfGmAfAdT; antisense dTfUmCfCmGfGmCfAmUfCmAfAmAfGmAfAmGfAmUdT*dT; siRNA) [compound 2301],0.558 ± 0.034,0.423 ± 0.102
2258 (sense fCmAfCmGfGmUfCmAfCmCfAmAfCmAfGmAfGmGfAdT; antisense dTfCmCfUmCfUmGfUmUfGmGfUmGfAmCfCmGfUmGdT*dT; siRNA) [compound 2258],0.882 ± 0.098,0.972 ± 0.168
2375 (sense fCmGfGmAfUmGfGmUfCmUfUmUfCmAfCmAfCmGfAdT; antisense dTfCmGfUmGfUmGfAmAfAmGfAmCfCmAfUmCfCmGdT*dT; siRNA) [compound 2375],0.481 ± 0.062,0.305 ± 0.040
2279 (sense fAmGfUmAfCmCfGmGfAmUfGmCfUmCfGmCfAmAfAdT; antisense dTfUmUfGmCfGmAfGmCfAmUfCmCfGmGfUmAfCmUdT*dT; siRNA) [compound 2279],0.506 ± 0.086,0.280 ± 0.042
2397 (sense fAmCfCmCfUmAfCmCfUmGfUmCfAmAfCmGfUmAfAdT; antisense dTfUmAfCmGfUmUfGmAfCmAfGmGfUmAfGmGfGmUdT*dT; siRNA) [compound 2397],0.254 ± 0.048,0.119 ± 0.024
2343 (sense fCmUfCmCfAmAfCmGfUmAfUmGfUmGfGmUfUmAfAdT; antisense dTfUmAfAmCfCmAfCmAfUmAfCmGfUmUfGmGfAmGdT*dT; siRNA) [compound 2343],0.620 ± 0.208,0.254 ± 0.009
